Assays:
Assay in all cases: KINOMEscan competition binding
Settings in all cases: compound 10.0 µM
RPS6KA6 KD2 (human) = RPS6KA6 KD2 (human) (UniProt Q9UK32)
NTRK2 (human) = NTRK2 (human) (UniProt Q16620)
CLK3 (human) = CLK3 (human) (UniProt P49761)
NEK1 (human) = NEK1 (human) (UniProt Q96PY6)
MAP3K3 (human) = MAP3K3 (human) (UniProt Q99759)
PTK2B (human) = PTK2B (human) (UniProt Q14289)
PRKCQ (human) = PRKCQ (human) (UniProt Q04759)
VRK2 (human) = VRK2 (human) (UniProt Q86Y07)
PI4KB (human) = PI4KB (human) (UniProt Q9UBF8)
STK32B (human) = STK32B (human) (UniProt Q9NY57)
CDK4 CCND1 (human) = CDK4 CCND1 (human) (UniProt P11802+P24385)
PRKACA (human) = PRKACA (human) (UniProt P17612)
HIPK4 (human) = HIPK4 (human) (UniProt Q8NE63)
[1] = system: KIT (human), P10721 [V559D/V654A]
EPHA5 (human) = EPHA5 (human) (UniProt P54756)
AKT2 (human) = AKT2 (human) (UniProt P31751)
MYLK3 (human) = MYLK3 (human) (UniProt Q32MK0)
ADCK3 (human) = ADCK3 (human) (UniProt Q8NI60)
ACVR1 (human) = ACVR1 (human) (UniProt Q04771)
CDK4 CCND3 (human) = CDK4 CCND3 (human) (UniProt P11802+P30281)
MAPK6 (human) = MAPK6 (human) (UniProt Q16659)
Chain of MAPK6 (human) (Q16659 whole entry, looked up): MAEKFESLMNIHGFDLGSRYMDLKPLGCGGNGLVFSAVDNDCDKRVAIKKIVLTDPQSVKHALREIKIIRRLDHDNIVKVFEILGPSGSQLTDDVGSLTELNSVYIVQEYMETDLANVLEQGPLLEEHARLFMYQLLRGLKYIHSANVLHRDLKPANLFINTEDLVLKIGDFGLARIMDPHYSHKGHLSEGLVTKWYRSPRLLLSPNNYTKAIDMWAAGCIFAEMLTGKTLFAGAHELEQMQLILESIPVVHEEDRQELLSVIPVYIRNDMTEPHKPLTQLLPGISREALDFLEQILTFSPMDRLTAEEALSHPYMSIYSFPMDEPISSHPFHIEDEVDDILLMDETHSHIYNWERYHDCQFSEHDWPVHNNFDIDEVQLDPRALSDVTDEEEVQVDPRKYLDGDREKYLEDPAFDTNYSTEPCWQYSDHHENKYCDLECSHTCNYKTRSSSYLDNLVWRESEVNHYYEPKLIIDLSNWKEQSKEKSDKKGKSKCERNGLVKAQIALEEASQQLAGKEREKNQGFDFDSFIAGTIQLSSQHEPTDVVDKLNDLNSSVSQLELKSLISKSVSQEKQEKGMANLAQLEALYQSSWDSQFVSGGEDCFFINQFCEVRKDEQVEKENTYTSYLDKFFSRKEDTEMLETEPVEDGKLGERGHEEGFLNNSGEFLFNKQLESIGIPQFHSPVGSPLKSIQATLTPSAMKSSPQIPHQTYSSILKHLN

[2] = target: JAK1 JH1 catalytic (human) (UniProt P23458)
CDC42BPG (human) = CDC42BPG (human) (UniProt Q6DT37)
Chain of CDC42BPG (human) (Q6DT37 whole entry, looked up): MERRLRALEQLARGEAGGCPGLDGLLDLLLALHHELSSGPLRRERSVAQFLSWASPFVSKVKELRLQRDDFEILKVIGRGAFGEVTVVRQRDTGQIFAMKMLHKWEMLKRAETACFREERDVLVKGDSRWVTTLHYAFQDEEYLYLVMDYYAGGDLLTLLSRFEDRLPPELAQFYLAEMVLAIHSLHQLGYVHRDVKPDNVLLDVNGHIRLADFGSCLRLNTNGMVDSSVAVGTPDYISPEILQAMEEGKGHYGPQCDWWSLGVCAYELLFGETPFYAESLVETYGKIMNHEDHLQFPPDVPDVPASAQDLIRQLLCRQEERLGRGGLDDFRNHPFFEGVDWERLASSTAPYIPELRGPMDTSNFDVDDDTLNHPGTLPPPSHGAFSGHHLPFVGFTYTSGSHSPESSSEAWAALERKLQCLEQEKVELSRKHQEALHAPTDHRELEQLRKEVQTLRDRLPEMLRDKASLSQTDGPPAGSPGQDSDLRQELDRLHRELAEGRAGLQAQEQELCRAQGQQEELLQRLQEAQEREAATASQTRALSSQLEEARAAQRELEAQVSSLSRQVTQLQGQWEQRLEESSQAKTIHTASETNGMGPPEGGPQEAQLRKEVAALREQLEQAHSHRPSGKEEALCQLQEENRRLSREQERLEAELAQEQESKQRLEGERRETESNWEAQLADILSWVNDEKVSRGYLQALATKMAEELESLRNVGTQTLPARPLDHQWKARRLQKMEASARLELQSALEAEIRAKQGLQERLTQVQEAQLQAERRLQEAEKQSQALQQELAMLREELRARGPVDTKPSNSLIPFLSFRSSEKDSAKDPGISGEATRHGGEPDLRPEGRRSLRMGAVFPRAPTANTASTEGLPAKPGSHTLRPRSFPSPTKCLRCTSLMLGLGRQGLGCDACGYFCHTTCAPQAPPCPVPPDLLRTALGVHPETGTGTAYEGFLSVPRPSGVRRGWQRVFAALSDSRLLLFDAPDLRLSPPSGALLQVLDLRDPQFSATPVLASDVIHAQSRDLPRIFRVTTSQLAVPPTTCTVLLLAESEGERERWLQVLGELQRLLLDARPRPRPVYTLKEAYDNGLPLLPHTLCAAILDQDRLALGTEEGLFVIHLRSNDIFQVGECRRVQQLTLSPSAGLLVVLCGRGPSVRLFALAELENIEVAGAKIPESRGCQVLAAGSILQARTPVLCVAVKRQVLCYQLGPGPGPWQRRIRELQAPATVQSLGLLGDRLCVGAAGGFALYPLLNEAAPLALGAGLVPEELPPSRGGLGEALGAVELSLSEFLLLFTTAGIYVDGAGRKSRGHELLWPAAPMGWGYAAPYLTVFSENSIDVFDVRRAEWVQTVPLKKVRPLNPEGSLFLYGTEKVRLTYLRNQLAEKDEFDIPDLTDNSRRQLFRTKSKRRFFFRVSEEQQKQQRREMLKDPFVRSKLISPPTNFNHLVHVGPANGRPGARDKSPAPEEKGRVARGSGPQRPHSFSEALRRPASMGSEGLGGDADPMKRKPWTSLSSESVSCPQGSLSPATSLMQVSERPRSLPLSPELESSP

MAP3K4 (human) = MAP3K4 (human) (UniProt Q9Y6R4)
CDKL5 (human) = CDKL5 (human) (UniProt O76039)
CAMK2A (human) = CAMK2A (human) (UniProt Q9UQM7)
Chain of CAMK2A (human) (Q9UQM7 whole entry, looked up): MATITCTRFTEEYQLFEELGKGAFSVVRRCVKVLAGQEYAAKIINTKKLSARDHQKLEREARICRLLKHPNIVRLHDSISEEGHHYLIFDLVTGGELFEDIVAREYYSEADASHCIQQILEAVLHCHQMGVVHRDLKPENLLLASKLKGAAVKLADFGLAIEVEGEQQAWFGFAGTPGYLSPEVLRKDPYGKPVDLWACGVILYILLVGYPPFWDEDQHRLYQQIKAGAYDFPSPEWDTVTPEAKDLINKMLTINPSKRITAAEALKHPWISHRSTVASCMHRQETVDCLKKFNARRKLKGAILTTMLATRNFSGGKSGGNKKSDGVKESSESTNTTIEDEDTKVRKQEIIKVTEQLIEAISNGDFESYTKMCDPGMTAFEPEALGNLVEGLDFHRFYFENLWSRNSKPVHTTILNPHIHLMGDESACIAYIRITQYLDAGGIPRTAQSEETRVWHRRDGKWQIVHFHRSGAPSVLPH

PIM3 (human) = PIM3 (human) (UniProt Q86V86)
FGR (human) = FGR (human) (UniProt P09769)
RPS6KA5 KD2 (human) = RPS6KA5 KD2 (human) (UniProt O75582)
WEE2 (human) = WEE2 (human) (UniProt P0C1S8)
STK39 (human) = STK39 (human) (UniProt Q9UEW8)
MARK1 (human) = MARK1 (human) (UniProt Q9P0L2)
MYO3A (human) = MYO3A (human) (UniProt Q8NEV4)
GRK7 (human) = GRK7 (human) (UniProt Q8WTQ7)
CAMK1D (human) = CAMK1D (human) (UniProt Q8IU85)
STK4 (human) = STK4 (human) (UniProt Q13043)
[3] = target: JAK2 JH1 catalytic (human) (UniProt O60674)
Chain of JAK2 JH1 catalytic (human) (O60674 whole entry, looked up): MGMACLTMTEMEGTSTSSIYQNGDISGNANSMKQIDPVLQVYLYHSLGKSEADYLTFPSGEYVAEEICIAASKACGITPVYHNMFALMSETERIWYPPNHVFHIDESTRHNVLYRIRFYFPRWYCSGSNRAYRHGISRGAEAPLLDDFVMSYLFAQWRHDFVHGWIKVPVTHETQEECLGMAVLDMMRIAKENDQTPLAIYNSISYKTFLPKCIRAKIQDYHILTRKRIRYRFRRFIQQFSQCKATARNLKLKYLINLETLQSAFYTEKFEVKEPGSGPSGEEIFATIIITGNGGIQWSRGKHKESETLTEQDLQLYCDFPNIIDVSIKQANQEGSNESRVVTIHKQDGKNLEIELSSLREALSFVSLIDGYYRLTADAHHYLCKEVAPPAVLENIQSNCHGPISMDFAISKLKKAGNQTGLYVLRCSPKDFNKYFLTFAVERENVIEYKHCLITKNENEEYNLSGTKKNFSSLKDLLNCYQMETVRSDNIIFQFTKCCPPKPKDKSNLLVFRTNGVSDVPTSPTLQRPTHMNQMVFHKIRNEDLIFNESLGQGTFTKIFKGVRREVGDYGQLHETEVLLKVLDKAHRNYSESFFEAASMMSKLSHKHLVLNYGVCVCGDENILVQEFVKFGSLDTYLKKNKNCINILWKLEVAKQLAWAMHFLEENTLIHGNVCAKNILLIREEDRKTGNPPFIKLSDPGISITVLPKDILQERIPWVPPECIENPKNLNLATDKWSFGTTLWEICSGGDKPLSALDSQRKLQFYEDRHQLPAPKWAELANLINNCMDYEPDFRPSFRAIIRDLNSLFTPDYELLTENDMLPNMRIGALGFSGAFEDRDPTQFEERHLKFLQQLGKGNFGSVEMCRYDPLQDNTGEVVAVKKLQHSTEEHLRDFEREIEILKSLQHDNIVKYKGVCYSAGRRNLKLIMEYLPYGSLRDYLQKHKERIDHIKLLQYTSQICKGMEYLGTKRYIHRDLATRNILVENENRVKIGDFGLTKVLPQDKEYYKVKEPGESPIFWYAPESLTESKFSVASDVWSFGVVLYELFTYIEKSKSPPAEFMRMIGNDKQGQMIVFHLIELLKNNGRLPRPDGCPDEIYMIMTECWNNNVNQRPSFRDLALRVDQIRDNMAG

MAPK1 (human) = MAPK1 (human) (UniProt P28482)
RPS6KB1 (human) = RPS6KB1 (human) (UniProt P23443)
RIOK3 (human) = RIOK3 (human) (UniProt O14730)

Chain of PRKCQ (human) (Q04759 whole entry, looked up): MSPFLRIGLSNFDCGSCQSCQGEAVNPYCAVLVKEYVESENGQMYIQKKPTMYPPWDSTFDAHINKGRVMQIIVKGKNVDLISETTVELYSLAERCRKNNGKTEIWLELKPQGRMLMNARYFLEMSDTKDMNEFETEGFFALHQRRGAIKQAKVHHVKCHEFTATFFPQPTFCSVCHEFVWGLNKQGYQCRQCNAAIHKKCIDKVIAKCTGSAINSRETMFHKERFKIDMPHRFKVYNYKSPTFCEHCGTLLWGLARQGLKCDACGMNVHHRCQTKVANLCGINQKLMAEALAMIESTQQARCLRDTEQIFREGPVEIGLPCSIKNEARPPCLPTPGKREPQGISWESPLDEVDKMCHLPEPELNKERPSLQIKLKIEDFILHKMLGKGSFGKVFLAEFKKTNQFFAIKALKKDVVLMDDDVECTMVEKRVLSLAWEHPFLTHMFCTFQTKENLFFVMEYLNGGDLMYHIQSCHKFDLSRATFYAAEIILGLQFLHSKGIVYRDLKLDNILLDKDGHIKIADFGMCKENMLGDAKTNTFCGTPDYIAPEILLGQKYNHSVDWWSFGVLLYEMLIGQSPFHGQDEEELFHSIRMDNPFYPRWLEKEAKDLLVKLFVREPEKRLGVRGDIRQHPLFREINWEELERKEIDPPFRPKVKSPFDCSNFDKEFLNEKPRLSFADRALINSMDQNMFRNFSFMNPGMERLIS

| SMILES | kinase still bound, per cent of control (RPS6KA6 KD2 (human)) | kinase still bound, per cent of control (NTRK2 (human)) | kinase still bound, per cent of control (CLK3 (human)) | kinase still bound, per cent of control (NEK1 (human)) | kinase still bound, per cent of control (MAP3K3 (human)) | kinase still bound, per cent of control (PTK2B (human)) | kinase still bound, per cent of control (PRKCQ (human)) | kinase still bound, per cent of control (VRK2 (human)) | kinase still bound, per cent of control (PI4KB (human)) | kinase still bound, per cent of control (STK32B (human)) | kinase still bound, per cent of control (CDK4 CCND1 (human)) | kinase still bound, per cent of control (PRKACA (human)) | kinase still bound, per cent of control (HIPK4 (human)) | kinase still bound, per cent of control [1] | kinase still bound, per cent of control (EPHA5 (human)) | kinase still bound, per cent of control (AKT2 (human)) | kinase still bound, per cent of control (MYLK3 (human)) | kinase still bound, per cent of control (ADCK3 (human)) | kinase still bound, per cent of control (ACVR1 (human)) | kinase still bound, per cent of control (CDK4 CCND3 (human)) | other results |
| --- | --- | --- | --- | --- | --- | --- | --- | --- | --- | --- | --- | --- | --- | --- | --- | --- | --- | --- | --- | --- | --- |
| O=C1NC(=O)/C(=C/c2ccc3nccc(-c4ccncc4)c3c2)S1 | 5.2% | 73% | 0.05% | 47% | 75% | 86% | 60% | 81% | 0.4% | 100% | 92% | 35% | 3.8% | 100% | 91% | 100% | 6.2% | 93% | 36% | 100% | kinase still bound, per cent of control (MAPK6 (human)): 100%; kinase still bound, per cent of control [2]: 95%; kinase still bound, per cent of control (CDC42BPG (human)): 90%; kinase still bound, per cent of control (MAP3K4 (human)): 96%; kinase still bound, per cent of control (CDKL5 (human)): 76%; kinase still bound, per cent of control (CAMK2A (human)): 4.8%; kinase still bound, per cent of control (PIM3 (human)): 2.4%; kinase still bound, per cent of control (FGR (human)): 69%; kinase still bound, per cent of control (RPS6KA5 KD2 (human)): 4.6%; kinase still bound, per cent of control (WEE2 (human)): 95%; kinase still bound, per cent of control (STK39 (human)): 71%; kinase still bound, per cent of control (MARK1 (human)): 74%; kinase still bound, per cent of control (MYO3A (human)): 85%; kinase still bound, per cent of control (GRK7 (human)): 5.4%; kinase still bound, per cent of control (CAMK1D (human)): 57%; kinase still bound, per cent of control (STK4 (human)): 81%; kinase still bound, per cent of control [3]: 31%; kinase still bound, per cent of control (MAPK1 (human)): 100%; kinase still bound, per cent of control (RPS6KB1 (human)): 53%; kinase still bound, per cent of control (RIOK3 (human)): 1.4% |
| COCC(=O)NC/C=C/c1ccc2ncnc(Nc3ccc(Oc4ccc(C)nc4)c(C)c3)c2c1 | 88% | 100% | 100% | 83% | 100% | 80% | 100% | 100% | 100% | 92% | 100% | 100% | 95% | 88% | 100% | 100% | 100% | 100% | 90% | 100% | kinase still bound, per cent of control (MAPK6 (human)): 100%; kinase still bound, per cent of control [2]: 100%; kinase still bound, per cent of control (CDC42BPG (human)): 90%; kinase still bound, per cent of control (MAP3K4 (human)): 97%; kinase still bound, per cent of control (CDKL5 (human)): 100%; kinase still bound, per cent of control (CAMK2A (human)): 93%; kinase still bound, per cent of control (PIM3 (human)): 100%; kinase still bound, per cent of control (FGR (human)): 89%; kinase still bound, per cent of control (RPS6KA5 KD2 (human)): 98%; kinase still bound, per cent of control (WEE2 (human)): 81%; kinase still bound, per cent of control (STK39 (human)): 100%; kinase still bound, per cent of control (MARK1 (human)): 100%; kinase still bound, per cent of control (MYO3A (human)): 75%; kinase still bound, per cent of control (GRK7 (human)): 100%; kinase still bound, per cent of control (CAMK1D (human)): 87%; kinase still bound, per cent of control (STK4 (human)): 87%; kinase still bound, per cent of control [3]: 100%; kinase still bound, per cent of control (MAPK1 (human)): 100%; kinase still bound, per cent of control (RPS6KB1 (human)): 65%; kinase still bound, per cent of control (RIOK3 (human)): 100% |
